In PubChem BioAssay AID1259411 (Chemical Carcinogenesis Research Information System (CCRIS), 2018):
Calls of active or inactive are those of the source. The rule behind the calls is not given here.

Tested on: rodent carcinogenicity bioassays, tumor incidence
Assay: CCRIS carcinogenicity studies
Outline: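 NCI-built, expert-reviewed records of carcinogenicity and related test outcomes (mutagenicity, tumor promotion/inhibition) compiled from published and report sources, historical span 1985-2011, not updated.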

O[C@@H]1C=Cc2c(ccc3cc4ccccc4nc23)[C@H]1O
carcinogen call (Species: MOUSE, Strain/Sex: SWISS/FEMALE, Route: INTRAPERITONEAL, Dose: 0, 1.05 UMOL GIVEN AS 150 NMOL IN 5 µL DMSO WITHIN 24 HR OF BIRTH, 300 NMOL IN 10 µL DMSO ON D 8 OF LIFE, AND 600 NMOL I, Tumor Site: Type of Lesion: LUNG: ADENOMA): active; positive
carcinogen call (Species: MOUSE, Strain/Sex: SWISS/MALE, Route: INTRAPERITONEAL, Dose: 0, 1.05 UMOL GIVEN AS 150 NMOL IN 5 µL DMSO WITHIN 24 HR OF BIRTH, 300 NMOL IN 10 µL DMSO ON D 8 OF LIFE, AND 600 NMOL I, Tumor Site: Type of Lesion: LUNG: ADENOMA, LIVER: NEOPLASTIC NODULE): active; positive

CCOS(=O)(=O)OCC
carcinogen call (Species: RAT, Route: ORAL, Tumor Site: Type of Lesion: FORESTOMACH): active; positive
carcinogen call (Species: RAT, Route: SUBCUTANEOUS, Tumor Site: Type of Lesion: INJECTION SITE): active; positive

COc1ccc(O)c(C(C)(C)C)c1
carcinogen call (Species: HAMSTER, Strain/Sex: SYRIAN/MALE, Route: ORAL, Dose: 1% IN DIET FOR 24 WK (STUDY DURATION: 24 WK), Tumor Site: Type of Lesion: FORESTOMACH: PAPILLOMA): active; positive

CCOP(=S)(OCC)Oc1ccc([N+](=O)[O-])cc1
carcinogen call (Species: MOUSE, Strain/Sex: B6C3F1/FEMALE, Route: ORAL, Dose: 0, 80, 160 PPM IN DIET, Dose: 0, 80, 160 PPM IN DIET): inactive; negative
carcinogen call (Species: MOUSE, Strain/Sex: B6C3F1/MALE, Route: ORAL, Dose: 0, 80, 160 PPM IN DIET, Dose: 0, 80, 160 PPM IN DIET): inactive; negative
carcinogen call (Species: RAT, Strain/Sex: OSBORNE-MENDEL/FEMALE, Route: ORAL, Dose: 0, 23, 45 PPM IN DIET FOR 80 WK (STUDY DURATION: 112-113 WK), Dose: 0, 23, 45 PPM IN DIET FOR 80 WK (STUDY DURATION: 112-113 WK), Tumor Site: Type of Lesion: ADRENAL GLAND: CORTICAL ADENOMA OR CARCINOMA): equivocal
carcinogen call (Species: RAT, Strain/Sex: OSBORNE-MENDEL/MALE, Route: ORAL, Dose: 0, 32, 63 PPM IN DIET FOR 80 WK (STUDY DURATION: 112-113 WK), Dose: 0, 32, 63 PPM IN DIET FOR 80 WK (STUDY DURATION: 112-113 WK), Tumor Site: Type of Lesion: ADRENAL GLAND: CORTICAL ADENOMA OR CARCINOMA): equivocal

O=C1OC2(c3ccccc31)c1ccc(O)c(Br)c1Oc1c2ccc(O)c1Br
carcinogen call (Species: MOUSE, Strain/Sex: ICR/FEMALE, Route: DERMAL, Dose: 0, 1 MG IN 0.1 ML DISTILLED WATER 2/WK FOR A MEAN TOTAL DOSE OF 136.5 MG (STUDY DURATION: 18 MO)): inactive; negative
carcinogen call (Species: MOUSE, Strain/Sex: ICR/MALE, Route: DERMAL, Dose: 0, 1 MG IN 0.1 ML DISTILLED WATER 2/WK FOR A MEAN TOTAL DOSE OF 136.5 MG (STUDY DURATION: 18 MO)): inactive; negative

CCCNC(=O)NS(=O)(=O)c1ccc(Cl)cc1
carcinogen call (Species: MOUSE, Strain/Sex: B6C3F1/FEMALE, Route: ORAL, Dose: 0, 3317, 6635 PPM IN DIET, Dose: 0, 3317, 6635 PPM IN DIET): inactive; negative
carcinogen call (Species: MOUSE, Strain/Sex: B6C3F1/MALE, Route: ORAL, Dose: 0, 3317, 6635 PPM IN DIET, Dose: 0, 3317, 6635 PPM IN DIET): inactive; negative
carcinogen call (Species: RAT, Strain/Sex: F344/FEMALE, Route: ORAL, Dose: 0, 3000, 6000 PPM IN DIET, Dose: 0, 3000, 6000 PPM IN DIET): inactive; negative
carcinogen call (Species: RAT, Strain/Sex: F344/MALE, Route: ORAL, Dose: 0, 3000, 6000 PPM IN DIET, Dose: 0, 3000, 6000 PPM IN DIET): inactive; negative

c1ccc(N=Nc2ccccc2)cc1
carcinogen call (Species: MOUSE, Strain/Sex: B6C3F1/FEMALE, Route: ORAL, Dose: 0, 208, 545 PPM IN DIET, TWA, Dose: 0, 208, 545 PPM IN DIET, TWA): inactive; negative
carcinogen call (Species: MOUSE, Strain/Sex: B6C3F1/MALE, Route: ORAL, Dose: 0, 200, 400 PPM IN DIET, Dose: 0, 200, 400 PPM IN DIET): inactive; negative
carcinogen call (Species: RAT, Strain/Sex: F344/FEMALE, Route: ORAL, Dose: 0, 200, 400 PPM IN DIET FOR 106 WK (STUDY DURATION: 106 WK), Dose: 0, 200, 400 PPM IN DIET FOR 106 WK (STUDY DURATION: 106 WK), Tumor Site: Type of Lesion: SPLEEN OR PERITONEUM: SARCOMA): active; positive
carcinogen call (Species: RAT, Strain/Sex: F344/FEMALE, Route: ORAL, Dose: 0, 200, 400 PPM IN DIET, Dose: 0, 200, 400 PPM IN DIET, Tumor Site: Type of Lesion: SPLEEN: FIBROSARCOMA, OSTEOSARCOMA, PERITONEAL CAVITY: SARCOMA): active; positive
carcinogen call (Species: RAT, Strain/Sex: F344/MALE, Route: ORAL, Dose: 0, 200, 400 PPM IN DIET FOR 106 WK (STUDY DURATION: 106 WK), Dose: 0, 200, 400 PPM IN DIET FOR 106 WK (STUDY DURATION: 106 WK), Tumor Site: Type of Lesion: SPLEEN OR PERITONEUM: SARCOMA): active; positive
carcinogen call (Species: RAT, Strain/Sex: F344/MALE, Route: ORAL, Dose: 0, 200, 400 PPM IN DIET, Dose: 0, 200, 400 PPM IN DIET, Tumor Site: Type of Lesion: SPLEEN: FIBROSARCOMA, PERITONEAL CAVITY: SARCOMA): active; positive

COc1ccc(OC)c(N=Nc2c(O)ccc3ccccc23)c1
carcinogen call (Species: MOUSE, Strain/Sex: C57 X 1F F1, Route: BLADDER IMPLANT, Dose: 0, 12.5% SUSPENSION IN PARAFFIN WAX (STUDY DURATION: 40 WK), Tumor Site: Type of Lesion: BLADDER: CARCINOMA): active; positive
